Values of other authors in patent US10545077B2, “Solid phase microextraction coating” (JP SCIENTIFIC LIMITED, priority 2016, dated 2020).

LogP	Structure (SMILES)
1.87	CC(C)NCC(O)COc1ccc(COCCOC(C)C)cc1 (stereo not drawn) [Bisoprolol]
2.42	CCCC1O[C@@H]2C[C@H]3[C@@H]4CCC5=CC(=O)C=C[C@]5(C)[C@H]4[C@@H](O)C[C@]3(C)[C@]2(C(=O)CO)O1 (stereo partly drawn) [Budesonide]
1.66	C[C@]12C=CC(=O)C=C1CC[C@@H]1[C@@H]2[C@@H](O)C[C@@]2(C)[C@H]1CC[C@]2(O)C(=O)CO [Prednisolone]
